Results on three compounds are retold here after patent US11414381B2, “Fluorinated imide salt compound and surfactant” (Mitsubishi Materials Electronic Chemicals Co., Ltd., priority 2018, dated 2022).

Data set [1] can be described thus: Stability in water: decomposition rate from 19F-NMR before and after storage. In kind it is physicochemical. Conditions: stored 20 days at 20° C. to 25° C. As for the experimental part: (§1) Each of the compounds was mixed with water so that an aqueous solution having a concentration of 10% by mass was prepared. The prepared aqueous solution was stored for 20 days in a room adjusted to 20° C. to 25° C. By calculating a decomposition rate of the compound from ^19F—NMR spectra of the compound in the aqueous solution that were obtained before and after the storage, the stability in water was evaluated. The decomposition rate was calculated by the following formula. A compound having a decomposition rate of 3% or less was described as “No decomposition”. […] Therefore, in Comparative Example 2, the stability in water was evaluated in the saturated state. Decomposition rate (%)={1-(integration value of ^19F—NMR spectrum after storage/integration value of ^19F—NMR spectrum before storage)}×100

A short description of data set [2]: Surface activity: surface tension of aqueous solution, Wilhelmy method. The format is physicochemical. On the procedure: (§2) Each of the compounds was mixed with water so that an aqueous solution having a concentration of 1,000 ppm by mass was prepared. By measuring the surface tension of the prepared aqueous solution, the surface activity was evaluated. The surface tension was measured by the Wilhelmy method using an automatic surface tensiometer CBVP-Z manufactured by Kyowa Interface Science Co., LTD. […] Therefore, in Comparative Example 2, the surface tension was measured in the saturated state.

A short description of data set [3]: Dissolution in water when preparing the aqueous test solutions. The format is physicochemical. On the procedure: as §2, §1
For data set [4] the following is noted: according to Japanese Patent No. 4080998; cited from earlier work.
Data set [5] in a line: Surface tension-reducing ability, background comparison with PFOA / PFOS. In kind it is physicochemical. The conditions noted are these: study conducted by the inventors.

In the case of `O=S(=O)([N-]S(=O)(=O)C(F)(F)C(F)(F)C(F)(F)C(F)(F)F)C(F)(F)C(F)(F)C(F)(F)C(F)(F)F.[K+]` [Comparative Example 1, bis(perfluorobutanesulfonyl)imide potassium salt], the Stability in water entry in data set [1] (10% by mass aqueous solution) is given as “No decomposition (A compound having a decomposition rate of 3% or less was described as “No decomposition”)”. Besides, in data set [2] (aqueous solution, concentration 1,000 ppm by mass), the Surface tension came to 43 mN/m.
As to `O=S(=O)([O-])C(F)(F)C(F)(F)C(F)(F)C(F)(F)C(F)(F)C(F)(F)C(F)(F)C(F)(F)F.[K+]` [Comparative Example 2, potassium salt of perfluorooctanesulfonic acid (PFOS)], the Dissolution in water entry in data set [3] (mixed with water for 10% by mass) and in data set [3] (mixed with water for 1,000 ppm by mass) was “formed a saturated aqueous solution without being completely dissolved in water” each time. In addition, the Stability in water result in data set [1] (saturated aqueous solution) is given as “No decomposition (A compound having a decomposition rate of 3% or less was described as “No decomposition”)”. In addition, in data set [2] (saturated aqueous solution (not completely dissolved)), the Surface tension is 41 (saturated) mN/m.
As for `N.O=S(=O)(NS(=O)(=O)C(F)(F)C(F)(F)C(F)(F)C(F)(F)F)C(F)(F)C(F)(F)C(F)(F)C(F)(F)F` [ammonium bis(perfluorobutanesulfonyl)imide], the “Ability to reduce surface tension compared to ammonium salt of PFOA” value in data set [4] is recorded as “more able to reduce surface tension than the ammonium salt of perfluorooctanoic acid (PFOA)”. Besides, the “Surface tension-reducing ability compared to PFOS” value in data set [5] is recorded as “lower than that of PFOS”.
